Structure (SMILES) | melting point
O=C(O)C(F)(F)C(F)(F)C(F)(F)C(F)(F)C(F)(F)C(F)(F)C(F)(F)C(F)(F)C(F)(F)C(F)(F)C(F)(F)C(F)(F)C(F)(F)C(F)(F)C(F)(F)F | 154 to 155 °C
N#C/C(=C\c1ccc(Cl)cc1)c1nc2ccccc2s1 | 150 °C
O=C(O)c1ccccc1Nc1cccc(F)c1 | 158 to 163 °C
Cn1c(/C(C#N)=N/Nc2cccc(O)c2)nc2ccccc21 | 285 °C
CN(C)C(CSS(=O)(=O)c1ccccc1)CSS(=O)(=O)c1ccccc1 | 83.5 °C
CCN(CC)c1ccc([N+](=O)[O-])cc1 | 77.5 °C
Cc1ccc(C(C)(C)C)c(O)c1 | 46.5 °C
COc1ccccc1-c1nnc2n1CN(c1ccccc1C)CS2 | 239 to 240 °C
COC(=O)C1(C(=O)OC)Cc2cccc(OC)c2C(=O)O1 | 88.7 to 89.7 °C
Cc1ccc(F)cc1C(N)=O | 120 to 122 °C
CC(=O)OC1CCC2(C)C(CCC3C4CC=C(C#Cc5ccccc5)C4(C)CCC32)C1 (stereo not given) | 152 to 153 °C
CC1(O)CSC(C)(O)CS1 (stereo not given) | 64 to 65 °C
CCOc1cc(Cl)c(N)c(Cl)c1 | 46 °C
CCCCCCCCCCCCCCCCCCOC(=O)CCc1cc(C(C)(C)C)c(O)c(C(C)(C)C)c1 | 52.5 °C
CC(C)(C)OC(=O)NC(Cc1cccs1)C(=O)O (stereo not given) | 71 to 76 °C
CC(CC(C)(C)O)OC(O)C(Cl)(Cl)Cl (stereo not given) | 103 °C
c1ccc2c(c1)OCCOCCOCCOc1ccccc1OCCO2 | 117 to 120 °C
NC(=O)NN=CC(=O)c1ccc(C(=O)C=NNC(N)=O)c([N+](=O)[O-])c1 | 241 °C
CC(=O)OCC(=O)[C@@]1(O)CC[C@H]2[C@@H]3CCC4=CC(=O)C=C[C@]4(C)[C@H]3[C@@H](O)C[C@@]21C | 238 °C
O=C(O)C=Cc1cccnc1 | 233 to 237 °C
CC1=C(C(N)=O)C(c2ccccc2)NC(=O)N1 (stereo not given) | 260 to 262 °C
FC(F)(F)C(F)(F)N(C(F)(F)C(F)(F)F)C(F)(F)C(F)(F)F | -110 °C
COc1cc([N+](=O)[O-])ccc1S(=O)(=O)Cl | 97 °C
C=CC(=O)NC(O)C(=O)O (stereo not given) | 123 to 127 °C
O=C(CBr)c1ccnc(Cl)c1 | 55 to 56.5 °C

Structure (SMILES) | melting point
O=[N+]([O-])c1c(Cl)ncnc1Cl | 102 °C
N#CC(=CNc1ccc(O)cc1)c1ccccc1 | 150 °C
Cc1cc(C)n(N=Cc2ccc([N+](=O)[O-])cc2)c(=O)c1C#N | 260 to 261 °C
COC(=O)c1c(N)sc2c1CCCC2 | 128 °C
CC(C)C(=O)C(=O)O | 31.5 °C
COc1ccc2c(c1)C(C(=O)O)C2 (stereo not given) | 93 °C
COC(=O)c1ccc([N+](=O)[O-])c(OC)c1 | 85 °C
CCC1(CCC(C)C)C(=O)NC(=O)NC1=O | 156 °C
N#Cc1ccc(F)c([N+](=O)[O-])c1 | 92 °C
N#Cc1ccc(N)c(C(F)(F)F)c1 | 62 °C
C=C[Si](OCCOC)(OCCOC)OCCOC | -30 °C
O=[N+]([O-])c1ccccc1N1CSc2nnc(-c3cccnc3)n2C1 | 159 °C
O=C(C1=NOC2C(=O)N(c3cccc4ccccc34)C(=O)C12)c1cccs1 (stereo not given) | 80 °C
NC(=S)c1cccs1 | 108 °C
Nc1cccc(S(=O)(=O)N2CCOCC2)c1 | 132 to 135 °C
Cc1ccc(C2(C(=O)O)CC2)cc1 | 109 to 114 °C
CCOC(=O)CCCCCCCCCCCCCCCCC(=O)OCC | 54.5 °C
Nc1cc(-c2ccccc2)no1 | 109 °C
O=S(=O)(Cl)c1cc(S(=O)(=O)c2ccccc2)cs1 | 102 °C
Cc1cc([N+](=O)[O-])ccc1I | 102 °C
O=Cc1ccccn1 | -21 °C
COc1cc(C=CC(=O)O)cc(Br)c1O | 256 °C
NC(=O)c1cccc2c1OCCO2 | 130 to 132 °C
O=C(Cl)c1cccc(C(Cl)Cl)c1 | 57 to 63 °C
O=C(O)CN(CC(=O)O)c1ccccc1OCCOc1ccccc1N(CC(=O)O)CC(=O)O | 177 to 179 °C

Structure (SMILES) | melting point
O=[N+]([O-])c1ccc(C2Nn3c(nnc3-c3cccnc3)S2)cc1 (stereo not given) | 245 to 246 °C
CC(=O)N(c1ccccc1)c1cc(N(C(C)=O)c2ccccc2)c([N+](=O)[O-])cc1[N+](=O)[O-] | 233 °C
Cc1cc(C(=O)CC#N)c(C)o1 | 120 to 122 °C
O=Cc1c[nH]c2ccc(Cl)cc12 | 211 °C
N#CC1(O)CCCCC1 | 35 °C
COC(=O)Cc1cccc(OCc2ccccc2)c1 | 34 to 37 °C
O=C1c2c(O)cccc2C(C2OC(CO)C(O)C(O)C2O)c2cc(CO)cc(O)c21 (stereo not given) | 148 °C
CCOC(=O)C1CC(=O)C(=C(O)C2CC2)C(=O)C1 (stereo not given) | 36 °C
C=C1C(=O)C23C(OC)CC4C5(C)CCCC4(COC5)C2C(OC(C)=O)CC1C3O (stereo not given) | 183 °C
FC(F)(F)c1ccnc(S)n1 | 161 to 166 °C
N#Cc1cc(Br)c(O)c(Br)c1 | 190 °C
OC1OCCCC1(Cl)Cl (stereo not given) | 87 to 90 °C
O=C(CCl)Nc1ccc(Cl)cc1Cl | 105 to 108 °C
CCN(Cc1c(F)cccc1Cl)c1c([N+](=O)[O-])cc(C(F)(F)F)cc1[N+](=O)[O-] | 102 °C
O=C1C(=O)N(O)C2CCCCC2N1O (stereo not given) | 243 to 245 °C
CC(=O)OC1=C(C(C)C)C(=O)C2=C(C1=O)C1(C)CCCC(C)(C)C1C(OC(C)=O)C2OC(C)=O (stereo not given) | 89 °C
CC(C)N(C=O)C(C)C | 10 to 11 °C
O=[N+]([O-])c1ccc2[nH]c3c(c2c1)CCN(Cc1ccccc1)C3 | 213 to 214 °C
CN(C)c1ccc(CO)cc1 | 69 °C
COc1ccccc1C(=S)N1CCOCC1 | 86 °C
CN(C)c1ccc(N=C(C#N)c2cccc(C(C#N)=Nc3ccc(N(C)C)cc3)c2)cc1 | 150 °C
CC(C)(OCc1ccc(-c2ccc(Cl)cc2)cc1)C(=O)O | 154 °C
O=[N+]([O-])c1ccc2ccc3cccc4ccc1c2c34 | 155 °C
CN1C(=O)NC(=O)C(C)(C2=CCCCC2)C1=O (stereo not given) | 146 °C
CC(CC1CCCCC1)CC1CCCCC1 | 0.6 °C

Structure (SMILES) | melting point
CCCCC(CC)COC(=O)c1ccc(C(=O)OCC(CC)CCCC)cc1 (stereo not given) | 30 to 34 °C
NC(=O)c1cc(Br)cc(Br)c1 | 182 °C
O=C(O)Cc1coc2ccccc12 | 90 to 93 °C
Cc1ccccc1C=Cc1ccccc1C | 83 °C
Cc1ccc(C)c(N/N=C(\C#N)c2nc3ccccc3n2C)c1 | 260 °C
CCCCC(O)(CCCC)CCCC | 20 °C
Clc1ccc2nccnc2c1 | 64 °C
COc1ccccc1N/N=C(\C#N)c1nc2ccccc2n1C | 200 to 202 °C
CC1(C)CC(O)CC(C)(C)N1 | 131 °C
CC1(C)C(=O)OOC1=O | 44 to 45 °C
CCOc1ccc(N=C(CNc2ccc(OCC)cc2)Nc2ccc(OCC)cc2)cc1 | 113 °C
CC(C)COC(=O)C(C)Oc1ccc(Oc2ccc(Cl)cc2)cc1 (stereo not given) | 39.5 °C
O=C(C1=NOC2C(=O)N(c3ccccc3Cl)C(=O)C12)c1cccs1 (stereo not given) | 180 °C
Clc1cccc2c(-c3ccccc3)c(-c3ccccc3)[nH]c12 | 97 to 98 °C
NNC(=S)NCc1ccccc1 | 130 °C
CC(=O)c1ccc(Cl)s1 | 49 °C
COc1cc2c(cc1OC)C(C#N)N(C(=O)c1ccccc1)CC2 (stereo not given) | 214 to 217 °C
COc1c(Br)ccc2c1C(=NNc1ccc([N+](=O)[O-])cc1[N+](=O)[O-])C2 | 309 to 310 °C
Oc1ccc(O)c(Br)c1 | 112 °C
Cc1ccc(C)c2c1-c1nc3ccccc3nc1-2 | 195 °C
Nc1cc(Cl)cc(C(=O)O)c1Cl | 200 °C
Cc1ccc(O)c(F)c1F | 37 °C
O=CC=Cc1ccc([N+](=O)[O-])o1 | 118 °C
Cc1nn(-c2ccccc2)c2oc3sccc3c(=S)c12 | 194 to 196 °C
COC1=C/C(=N\O)C2(C)CCC1C2(C)C (stereo not given) | 185 °C

Structure (SMILES) | melting point
CC(=O)NCCSC(C)=O | 32.5 °C
COP(=S)(OC)Oc1ccc(C#N)cc1 | 14.5 °C
Brc1cnc(N2CCNCC2)nc1 | 77 to 79 °C
O=C(Cl)c1ccc(Oc2ccccc2)cc1 | 22 to 23 °C
O=C(CBr)c1cccc(Cl)c1 | 39 to 41 °C
CCn1c2ccccc2c2cc(N)ccc21 | 99 °C
Cc1cnnc2c1-c1nonc1CC2 | 155 to 158 °C
O=[N+]([O-])c1ccc(-c2nc3n(c2[N+](=O)[O-])CCS3)cc1 | 203 to 205 °C
COc1cc(F)c(OC)cc1F | 121 °C
O=[N+]([O-])c1ccnc(Cl)c1 | 52 °C
CC1C(=O)C23C4CC5C(C)(CO)CCCC56COC(CC1C2OC(C)(C)O4)C63 (stereo not given) | 220 °C
Cc1ccc([N+](=O)[O-])cc1Cl | 66.5 °C
CCOc1nc2ccccc2c(=O)[nH]1 | 178 to 179 °C
COC(=O)c1ccc(OCc2ccccc2)cc1 | 98 °C
O=C1CCCC(Cl)(Cl)C1(O)O | 120 to 124 °C
O=C(O)c1cc2cc(Cl)cc(Cl)c2oc1=O | 198 to 200 °C
Cc1nc(NC(=N)N)sc1Br | 203 to 205 °C
O=C1OC(=O)C2=C1CC1=C(CC=CC1)C2 | 204 °C
CCOC(=O)c1ccc(N2C(=O)CCC2=O)cc1 | 158 to 160 °C
O=C1C=Cc2ccccc2C1=O | 136 to 141 °C
Cc1cc(Cl)c(Cl)c(Cl)c1 | 45.5 °C
CC(C)OC(=O)Nc1cccc(Cl)c1 | 42 °C
CC1CC2C(C(O)CC3(C)C2CCC3(O)C(=O)CO)C2(C)C=CC(=O)C=C12 (stereo not given) | 233 °C
O=S(=O)(c1ccccc1)n1cc(CO)c2ccccc21 | 90 to 91 °C
COc1ccc2[nH]c(C)c(CC(=O)O)c2c1 | 162 to 165 °C

From a melting point compilation (Tetko et al.)
